# From patent US11406645B2, “Acetamide thienotriazolodiazepines and uses thereof” (Dana-Farber Cancer Institute, Inc., priority 2015, dated 2022)
# Assay: not given
# Conditions: male, CD1, mouse, in vivo
row,Compound,F [%]
1,Cc1sc2c(c1C)C(c1ccc(Cl)cc1)=N[C@@H](CC(=O)N1CCn3c(nnc3C(F)(F)F)C1)c1nnc(C)n1-2 [Compound 605],6
2,Cc1sc2c(c1C)C(c1ccc(Cl)cc1)=N[C@@H](CC(=O)N1CCC(N3CCCCC3)CC1)c1nnc(C)n1-2 [Compound 603],20
3,Cc1sc2c(c1C)C(c1ccc(Cl)cc1)=N[C@@H](CC(=O)NCCCN1CCCC1)c1nnc(C)n1-2 [Compound 604],7
4,Cc1sc2c(c1C)C(c1ccc(Cl)cc1)=N[C@@H](CC(=O)NCCCN1CCC(N3CCCCC3)CC1)c1nnc(C)n1-2 [Compound 602],2
5,Cc1sc2c(c1C)C(c1ccc(Cl)cc1)=N[C@@H](CC(=O)NCC1CCN(CCN(C)C)CC1)c1nnc(C)n1-2 [Compound 601],4

# Assay: Pharmacokinetics in male CD1 mice, oral administration (whole blood)
# Conditions: oral 10 mg/kg, N=3, whole blood
# Protocol: Pharmacokinetic parameters were determined by administration of a candidate bromodomain inhibitor to male CD1 mice. Intravenous doses were delivered at 5 mg/kg, and oral doses at 10 mg/kg (N=3). […] The compound concentration in mouse blood was monitored over 24-hour time period to check the compound concentration in blood at 5 min, 30 min, 1 hour, 2 hours, 6 hours, 12 hours, and 24 hour via a series bleeding.
row,Compound,Tmax [min]
1,Cc1sc2c(c1C)C(c1ccc(Cl)cc1)=N[C@@H](CC(=O)OC(C)(C)C)c1nnc(C)n1-2 [JQ1],15
